Assay results from patent US8853242B2, “Nitrogenous-ring acylguanidine derivative” (Astellas Pharma Inc., priority 2009, dated 2014).
Where a name gives a salt, the structure may show the parent alone.

Target: human 5-HT5A receptor (Homo sapiens (Human), UniProt P47898)
Assay: Test on a human 5-HT5A receptor binding inhibition ([3H]5-CT)
Conditions: membrane from HEK293 cells expressing human 5-HT5A receptor, Ki calculated from IC50
Protocol: The ORF (open reading frame; protein coding region) of a human 5-HT5A receptor (Genbank AF498985) was cloned from a human hippocampus cDNA library, and then inserted into a pCR2.1 vector (Invitrogen), and Escherichia coli containing the plasmid was cultured in a large amount. Next, the full-length cDNA sequence of the human 5-HT5A receptor was analyzed, and recombined into a pCDNA3.1 vector (Invitrogen) as an expression vector and cultured in a large amount. HEK293 established cells (ATCC) derived from the human fetal kidney were seeded, the expression plasmid (1 μg) obtained above were added thereto with LIPOFECTAMINE 2000 (Invitrogen; 2 μl), the gene was transfected into HEK293 cells, and the expression cells were screened with a drug-resistant marker, Geneticin (G418 sulfate 500 μg/ml; Kanto Chemical Co., Inc.). Thus prepared recombinant cells which expressed the gene were cultured in a medium containing D-MEM (Dulbecco's modified eagle medium, Sigma), 10% FCS (Fetal calf serum: fetal bovine serum), 1% Pc./Sm (Penicillin/Streptomycin, Invitrogen), and 500 μg/ml G418 for 3 days. These experimental operations followed a manual for gene operation experiment and an instruction appended in a reagent, and the like, such as a known method (Sambrook, J. et al, Molecular Cloning-A Laboratory Manual”, Cold Spring Harabor laboratory, NY, 1989).
HEK293 cells for forced expressions of a human 5-HT5A receptor were cultured in a F500 plate, and scraped with a scraper. After centrifugation, the precipitate was collected, and an incubation buffer (50 mM Tris (HCl) (pH 7.4), 10 mM MgSO4, and 0.5 mM EDTA (ethylenediamine tetraacetic acid)) was added thereto. After homogenization, it was further centrifuged, and the incubation buffer was added to the precipitate, followed by thoroughly suspending. The operation was repeated, and protein concentration was measured, thereby completing preparation of the membrane.
A solution of the compound to be tested and 100 μM 5-CT (5-carboxamidetriptamine) in DMSO was added to a 96-well plate at 2 μl/well, suspended in an incubation buffer, and a membrane from HEK293 cells for forced expressions of a human 5-HT5A receptor prepared at 200 μg/ml was added at 100 μl/well. After incubation at room temperature for 15 minutes, a [^3H]5-CT solution (2 nM [^3H]5-CT, incubation buffer) was added thereto at 100 μl/well.
Separately, 100 μl of the solution was distributed into a liquid scintillation vial, and 2 ml of Aquasol II (registered trademark) was added thereto, followed by stirring. Then, radioactivity was measured by a liquid scintillation counter. It was incubated at 37° C. for 60 minutes. The reaction mixture was sucked into 96-well GF/C filter plate that had been pre-treated with 0.2% polyethyleneimine, and washed six times with an ice-cooled, 50 mM Tris (pH 7.5) buffer. The GF/C filter plate was dried.
Microscint TMPS (registered trademark) was added thereto at 40 μl/well. Radioactivity remaining on the GF/C filter plate was measured by a top counter.
The [^3H]5-CT binding inhibiting activity by the compound to be tested in each experiment was determined as an IC50 value with a radioactivity upon addition of DMSO alone being 0% inhibition, and a radioactivity upon addition of 1 μM 5-CT being 100% inhibition. Separately, Ki values were calculated from the Kd value of the [^3H]5-CT determined from Scatchard analysis, by the following equation. Ki=IC50(1+Concentraion of ligand added/Kd(4.95 nM))

human 5-HT5A receptor, sequence (P47898 whole entry): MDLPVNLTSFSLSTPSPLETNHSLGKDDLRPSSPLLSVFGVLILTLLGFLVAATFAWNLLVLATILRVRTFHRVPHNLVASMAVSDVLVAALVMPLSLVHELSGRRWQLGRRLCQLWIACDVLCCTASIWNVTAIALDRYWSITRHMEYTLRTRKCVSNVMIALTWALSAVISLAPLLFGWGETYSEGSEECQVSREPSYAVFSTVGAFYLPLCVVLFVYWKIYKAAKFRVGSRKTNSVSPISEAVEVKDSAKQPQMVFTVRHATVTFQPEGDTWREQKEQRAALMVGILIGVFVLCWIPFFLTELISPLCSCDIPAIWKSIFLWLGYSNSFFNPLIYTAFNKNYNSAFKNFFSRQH

| Ki ([3H]5-CT binding) [nM] | Ki ([3H]5-CT binding inhibition) [nM] | SMILES |
| --- | --- | --- |
| 1 to 10 | – | NC(N)=NC(=O)c1ccc2nccc(-c3c(F)cccc3Cl)c2c1 [Example 11] |
| 10 to 100 | – | Cc1ccc(-c2ccnc3c(C)cc(C(=O)N=C(N)N)cc23)c(F)c1 [Example 68] |
| 1 to 10 | – | Cc1ccccc1-c1ncc(Cl)c2ccc(C(=O)N=C(N)N)cc12 [Example 213] |
| 10 to 100 | – | COc1cc(F)c(-c2ccnc3ccc(C(=O)N=C(N)N)cc23)c(F)c1 [Example 59] |
| 1 to 10 | – | Cc1cnc2ccc(C(=O)N=C(N)N)cc2c1-c1c(F)cc(F)cc1Cl [Example 23] |
| 10 to 100 | – | NC(N)=NC(=O)c1ccc2c(Cl)cnc(-c3ccncc3F)c2c1 [Example 173] |
| 10 to 100 | – | NC(N)=NC(=O)c1ccc2nc(C(F)(F)F)cc(-c3c(F)cc(F)cc3F)c2c1 [Example 90] |
| 1 to 10 | – | Cc1cc(C(=O)N=C(N)N)cc2c(-c3ccccc3F)c(Cl)cnc12 [Example 101] |
| 1 to 10 | – | Cc1cnc(-c2c(F)cccc2Cl)c2cc(C(=O)N=C(N)N)ccc12 [Example 206] |
| 10 to 100 | – | Cc1nc2ccc(C(=O)N=C(N)N)cc2c(-c2c(F)cncc2F)c1C [Example 131] |
| 10 to 100 | – | COc1ccc(F)c(-c2ccnc3c(C)cc(C(=O)N=C(N)N)cc23)c1F [Example 78] |
| 10 to 100 | – | Cc1nc2ccc(C(=O)N=C(N)N)cc2c(-c2ccncc2Cl)c1C [Example 127] |
| 10 to 100 | – | N#Cc1cc(Cl)ccc1-c1nccc2ccc(C(=O)N=C(N)N)cc12 [Example 140] |
| 10 to 100 | – | Cc1cc(-c2c(F)cccc2Cl)c2cc(C(=O)N=C(N)N)ccc2n1 [Example 7] |
| 10 to 100 | – | NC(N)=NC(=O)c1ccc2c(CO)cnc(-c3c(F)cccc3F)c2c1 [Example 224] |
| 1 to 10 | – | Cc1cc(C(=O)N=C(N)N)cc2c(-c3c(F)cc(F)cc3F)ccnc12 [Example 39] |
| 10 to 100 | – | NC(N)=NC(=O)c1ccc2nccc(-c3cc(Cl)ccc3F)c2c1 [Example 22] |
| 10 to 100 | – | Cc1cc(C(=O)N=C(N)N)cc2c(-c3ccc(Cl)cc3Cl)ccnc12 [Example 45] |
| 1 to 10 | – | NC(N)=NC(=O)c1ccc2c(Cl)cnc(-c3ccccc3F)c2c1 [Example 175] |
| 10 to 100 | – | NC(N)=NC(=O)c1ccc2cncc(-c3ccc(F)cc3F)c2c1 [Example 228] |
| – | 1.6 | NC(N)=NC(=O)c1ccc2c(F)cnc(-c3c(F)cccc3Cl)c2c1 [Example 147] |
| 1 to 10 | – | Cc1cc(C(=O)N=C(N)N)cc2c(-c3c(F)cccc3F)ccnc12 [Example 42] |

| Ki ([3H]5-CT binding) [nM] | Ki ([3H]5-CT binding inhibition) [nM] | SMILES |
| --- | --- | --- |
| 100 to 300 | – | NC(N)=NC(=O)c1ccc2cccc(-c3ccccc3)c2n1 [Example 225] |
| 10 to 100 | – | NC(N)=NC(=O)c1ccc2c(C(F)F)cnc(-c3ccccc3F)c2c1 [Example 215] |
| 1 to 10 | – | Cc1cc(C(=O)N=C(N)N)cc2c(-c3cccc(Cl)c3Cl)ccnc12 [Example 46] |
| 1 to 10 | – | NC(N)=NC(=O)c1ccc2ccnc(-c3c(F)cc(F)cc3F)c2c1 [Example 1, N-(diaminomethylene)-1-(2,4,6-trifluorophenyl)isoquinoline-7-carboxamide dihydrochloride] |
| 10 to 100 | – | NC(N)=NC(=O)c1ccc2nccc(-c3cc(C(F)(F)F)ccc3F)c2c1 [Example 25] |
| 1 to 10 | – | NC(N)=NC(=O)c1ccc2nccc(-c3ccc(F)cc3Cl)c2c1 [Example 15] |
| – | 4.1 | NC(N)=NC(=O)c1ccc2c(F)cnc(-c3ccc(F)cc3Cl)c2c1 [Example 151] |
| 10 to 100 | – | Cc1cc(C(=O)N=C(N)N)cc2c(C3=CCCC3)ccnc12 [Example 75] |
| 10 to 100 | – | COc1cc(F)ccc1-c1ncc(Cl)c2ccc(C(=O)N=C(N)N)cc12 [Example 174] |
| 1 to 10 | – | Cc1nc2ccc(C(=O)N=C(N)N)cc2c(-c2ccccc2Cl)c1Cl [Example 130] |
| 10 to 100 | – | NC(N)=NC(=O)c1ccc2ncc(Cl)c(C3CC3)c2c1 [Example 76] |
| 1 to 10 | – | Cc1cc(C(=O)N=C(N)N)cc2c(-c3c(Cl)cccc3Cl)ccnc12 [Example 55] |
| 1 to 10 | – | COc1cc(Cl)ccc1-c1ccnc2c(C)cc(C(=O)N=C(N)N)cc12 [Example 77] |
| 1 to 10 | – | NC(N)=NC(=O)c1ccc2c(F)cnc(-c3c(F)cc(F)cc3F)c2c1 [Example 144] |
| 1 to 10 | – | NC(N)=NC(=O)c1ccc2c(F)cnc(-c3cccc(F)c3Cl)c2c1 [Example 200] |
| 1 to 10 | – | CCc1cnc(-c2c(F)cccc2F)c2cc(C(=O)N=C(N)N)ccc12 [Example 172] |
| 1 to 10 | – | NC(N)=NC(=O)c1ccc2c(Cl)cnc(C3CC3)c2c1 [Example 198] |
| 10 to 100 | – | NC(N)=NC(=O)c1ccc2c(F)cnc(-c3cccc(Cl)c3O)c2c1 [Example 199] |
| 1 to 10 | 7.1 | COc1cccc(F)c1-c1ncc(F)c2ccc(C(=O)N=C(N)N)cc12 [Example 159] |
| 1 to 10 | – | Cc1nc2ccc(C(=O)N=C(N)N)cc2c(-c2c(F)cccc2F)c1F [Example 123] |
| 1 to 10 | – | Cc1cc(C(=O)N=C(N)N)cc2c(-c3ccc(Cl)cc3F)ccnc12 [Example 67] |
| 1 to 10 | – | Cc1cc(-c2ccc(F)cc2Cl)c2cc(C(=O)N=C(N)N)cc(C)c2n1 [Example 91] |

| Ki ([3H]5-CT binding) [nM] | Ki ([3H]5-CT binding inhibition) [nM] | SMILES |
| --- | --- | --- |
| 10 to 100 | – | NC(N)=NC(=O)c1cc(F)c2nccc(-c3c(F)cc(F)cc3F)c2c1 [Example 54] |
| – | 1.9 | Cc1cnc(-c2c(F)cccc2F)c2cc(C(=O)N=C(N)N)ccc12 [Example 170] |
| 1 to 10 | – | COc1ccc(-c2c(Cl)cnc3ccc(C(=O)N=C(N)N)cc23)cc1 [Example 93] |
| 1 to 10 | 2.3 | NC(N)=NC(=O)c1ccc2c(Cl)cnc(-c3ccc(F)cc3F)c2c1 [Example 211] |
| 10 to 100 | – | Cc1nc2ccc(C(=O)N=C(N)N)cc2c(-c2ccccc2Cl)c1C [Example 122] |
| 1 to 10 | – | NC(N)=NC(=O)c1ccc2nccc(C3=CCCCC3)c2c1 [Example 62] |
| 10 to 100 | – | NC(=O)c1cc(-c2c(F)cc(F)cc2F)c2cc(C(=O)N=C(N)N)ccc2n1 [Example 30] |
| 10 to 100 | – | NC(N)=NC(=O)c1ccc2ccnc(-c3ccccc3)c2c1 [Example 133] |
| 1 to 10 | – | NC(N)=NC(=O)c1ccc2nccc(-c3c(F)cc(Cl)cc3F)c2c1 [Example 13] |
| 10 to 100 | – | Cc1nc2ccc(C(=O)N=C(N)N)cc2c(-c2ccccc2F)c1F [Example 125] |
| 1 to 10 | – | NC(N)=NC(=O)c1ccc2c(Cl)cnc(-c3cc(F)ccc3F)c2c1 [Example 214] |
| 10 to 100 | – | NC(N)=NC(=O)c1ccc2c(F)cnc(-c3ccc(Cl)cc3)c2c1 [Example 191] |
| 1 to 10 | – | COc1cccc(Cl)c1-c1ncc(F)c2ccc(C(=O)N=C(N)N)cc12 [Example 203] |
| 1 to 10 | – | Cc1cnc2ccc(C(=O)N=C(N)N)cc2c1-c1ccc(F)cc1F [Example 31] |
| 1 to 10 | – | Cc1nc2ccc(C(=O)N=C(N)N)cc2c(-c2c(F)cccc2F)c1C [Example 117] |
| 100 to 300 | – | NC(N)=NC(=O)c1ccc2nccc(-c3ccc(F)c(C(F)(F)F)c3)c2c1 [Example 37] |
| 10 to 100 | – | CC(C)c1cnc(-c2c(F)cccc2F)c2cc(C(=O)N=C(N)N)ccc12 [Example 158] |
| – | 1.3 | Cc1cnc(-c2c(F)cc(F)cc2F)c2cc(C(=O)N=C(N)N)ccc12 [Example 152] |
| 10 to 100 | – | Cc1cc(-c2ccccc2F)c2cc(C(=O)N=C(N)N)ccc2n1 [Example 82] |
| 10 to 100 | – | Cc1cc(-c2c(F)cc(F)cc2Cl)c2cc(C(=O)N=C(N)N)ccc2n1 [Example 124] |
| 1 to 10 | – | NC(N)=NC(=O)c1ccc2ncc(Cl)c(C3=CCCCC3)c2c1 [Example 102] |
